Tests used:
[1] = system: SARS-CoV-2; assay: microbe, parasite or virus in culture; type: cell-based; settings: for EC50: Severe acute respiratory syndrome coronavirus 2, 48 h, read-out: EC50, antiviral effect on SARS-CoV-2
[2] = system: human coronavirus 229E (HCoV-229E); assay: microbe, parasite or virus in culture; type: cell-based; settings: for IC50: Human coronavirus 229E, A549, read-out: IC50, antiviral effect on HCoV-229E
[3] = in vivo; settings: female, Wistar Albino, rat, po
[4] = rat, in vivo
[5] = in vivo; settings: male, Wistar Albino, rat, po, 10 mg/kg
[6] = 1 μM, 30 min, 37 °C

O=c1cc(OCCOc2ccnc(SCc3ccc(F)cc3)n2)c2ccccc2o1 [5a, 4-(2-((2-((4-Fluorobenzyl)thio)pyrimidin-4-yl)oxy)ethoxy)-2H-chromen-2-one]
EC50 [1]: > 50 µM
IC50 [2]: > 25 µM

O=c1cc(OCCCOc2ccnc(SCc3ccc(F)cc3)n2)c2ccccc2o1 [5b, 4-(3-((2-((4-Fluorobenzyl)thio)pyrimidin-4-yl)oxy)propoxy)-2H-chromen-2-one]
EC50 [1]: > 50 µM
IC50 [2]: > 25 µM

O=c1cc(OCCOc2ccnc(SCc3ccc(F)cc3)n2)c2cc(F)ccc2o1 [5c, 6-Fluoro-4-(2-((2-((4-fluorobenzyl)thio)pyrimidin-4-yl)oxy)ethoxy)-2H-chromen-2-one]
EC50 [1]: > 50 µM
IC50 [2]: > 25 µM

O=c1cc(OCCCOc2ccnc(SCc3ccc(F)cc3)n2)c2cc(F)ccc2o1 [5d, 6-Fluoro-4-(3-((2-((4-fluorobenzyl)thio)pyrimidin-4-yl)oxy)propoxy)-2H-chromen-2-one]
EC50 [1]: 14.3 ± 0.14 µM
LD50 [3]: 500 to 1000 mg/kg
IC50 [2]: 15.4 µM
GHS classification category ([4]; female, Wistar Albino): Category-4
clinical signs of toxicity and gross pathological changes ([4]; po, 300 mg/kg): no signs of toxicity
Cmax [5]: 220 ng/mL
half-life [5]: 73.3 h

Cc1cccc(CSc2nccc(OCCOc3cc(=O)oc4ccccc34)n2)c1 [5e, 4-(2-((2-((3-Methylbenzyl)thio)pyrimidin-4-yl)oxy)ethoxy)-2H-chromen-2-one]
selectivity index, SARS-CoV-2 [1]: 11.4
EC50 [1]: 6.59 ± 0.28 µM
metabolic stability against human liver microsomes (1 μM, 30 min, 37 °C): showed metabolic stability
compound found to be stable in human liver microsomes (human): > 50%
metabolic stability against rat liver microsomes [6]: showed metabolic stability
selectivity index, HCoV-229E [2]: 3.06
IC50 [2]: 24.4 µM

Cc1cccc(CSc2nccc(OCCCOc3cc(=O)oc4ccccc34)n2)c1 [5f, 4-(3-((2-((3-Methylbenzyl)thio)pyrimidin-4-yl)oxy)propoxy)-2H-chromen-2-one]
selectivity index, SARS-CoV-2 [1]: <1
EC50 [1]: > 50 µM
IC50 [2]: > 25 µM

Cc1cccc(CSc2nccc(OCCOc3cc(=O)oc4ccc(F)cc34)n2)c1 [5g, 6-Fluoro-4-(2-((2-((3-methylbenzyl)thio)pyrimidin-4-yl)oxy)ethoxy)-2H-chromen-2-one]
EC50 [1]: > 50 µM
IC50 [2]: > 25 µM

Cc1cccc(CSc2nccc(OCCCOc3cc(=O)oc4ccc(F)cc34)n2)c1 [5h, 6-Fluoro-4-(3-((2-((3-methylbenzyl)thio)pyrimidin-4-yl)oxy)propoxy)-2H-chromen-2-one]
EC50 [1]: > 50 µM
IC50 [2]: > 25 µM

O=c1cc(OCCOc2ccnc(SCc3ccc(Cl)cc3)n2)c2ccccc2o1 [5i, 4-(2-((2-((4-Chlorobenzyl)thio)pyrimidin-4-yl)oxy)ethoxy)-2H-chromen-2-one]
selectivity index, SARS-CoV-2 [1]: <1
EC50 [1]: > 50 µM
IC50 [2]: > 25 µM

Source: paper PMC10398856 (ACS Omega, 2023)
